How the values were obtained:
[1] = test system: acetylated α-tubulin in A549 lung adenocarcinoma cells; assay: Acetylated α-tubulin in-cell western (ICW) assay; assay type: cell-based; conditions: Homo sapiens, 16 h exposure, relative to 40 μM scriptaid positive control, read-out: EC50 Ac-α-tubulin, A549 cells
Description: Acetylated α-Tubulin and Histone H3 in-Cell Western (ICW) Assays
A549 cells were maintained in DMEM (Life Technologies)+10% FBS+2 mM glutamine & penicillin (10 μg/mL) and streptomycin ([…]. 10,000 A549 cells per well were plated into 96 well tissue culture plates (Corning) and incubated at 37° C. overnight in a humidified atmosphere containing 5% CO2 prior to addition of compounds. Compounds (dissolved in 100% DMSO) were diluted into cell culture media at 2× final assay concentration. 2× compound or DMSO (negative control) were added to cells (final DMSO concentration 0.4%). Untreated control wells received media. For acetylated α-tubulin assays, 40 μM scriptaid was used as a positive control. For acetylated histone H3 assays, 40 μM Trichostatin A (TSA) was used as a positive control. Cells were exposed to compound at 37° C. in a humidified atmosphere containing 5% CO2 for 16 h.
Measurement of the impact of compounds on levels of acetylated α-tubulin and histone H3 was performed using specific antibodies and near-infrared immunofluorescent dyes. Briefly, media was removed from wells of assay plates. Cells were washed once with PBS and fixed in 3.7% formaldehyde PBS solution at room temperature for 20 min. Cells were then permeabilised by washing 5 times in 0.1% triton-X-100 PBS at room temperature with gentle agitation for 5 min per wash. Non-specific antibody staining was blocked by the addition of Odyssey blocking buffer (Li-Cor) for 1.5 h at room temperature with gentle agitation. Cells were then incubated with primary antibody (mouse monoclonal anti-acetylated α-tubulin (clone 6-11B-1), Sigma or rabbit polyclonal anti-acetylated histone H3, Millipore) diluted in Odyssey blocking buffer at 4° C. with gentle shaking overnight (no antibody control and secondary antibody only wells were incubated with Odyssey blocking buffer only). Cells were washed five times with 0.1% tween PBS and labelled with secondary antibody (IR dye 800CW-conjugated goat anti mouse IgG or -goat anti rabbit IgG, Li-Cor) and cell stains Sapphire700 (Li-Cor) and Draq5 (Biostatus) diluted in Odyssey blocking buffer at room temperature in the dark with gentle shaking for 1 h (no antibody control wells were incubated with Odyssey blocking buffer only and secondary antibody only with diluted secondary antibody but no cell stains). Cells were washed with 0.1% Tween PBS five times and scanned using a Li-Cor Odyssey SA plate reader in 700 and 800 nm channels. Acetylated α-tubulin or histone H3 signal was normalised to cell number using the cell stain signal. Percentage increase in acetylated α-tubulin or histone H3 after compound treatment over the mean of DMSO treated controls, relative to scriptaid and TSA positive controls, respectively was calculated. EC50 values were calculated using GraphPad Prism software and nonlinear regression with 0% bottom and 100% top constraints.

Human HDAC11 = target: T1, Human HDAC11 (Homo sapiens, UniProt Q96DB2); assay: HDAC11 biochemical assay, class IIa-specific substrate; conditions: read-out: HDAC Isoform IC50 (nM) 11
T1 construct: Human HDAC11 (full length); His (N); host or cells: baculovirus expression system
T1 sequence (Q96DB2 1-347): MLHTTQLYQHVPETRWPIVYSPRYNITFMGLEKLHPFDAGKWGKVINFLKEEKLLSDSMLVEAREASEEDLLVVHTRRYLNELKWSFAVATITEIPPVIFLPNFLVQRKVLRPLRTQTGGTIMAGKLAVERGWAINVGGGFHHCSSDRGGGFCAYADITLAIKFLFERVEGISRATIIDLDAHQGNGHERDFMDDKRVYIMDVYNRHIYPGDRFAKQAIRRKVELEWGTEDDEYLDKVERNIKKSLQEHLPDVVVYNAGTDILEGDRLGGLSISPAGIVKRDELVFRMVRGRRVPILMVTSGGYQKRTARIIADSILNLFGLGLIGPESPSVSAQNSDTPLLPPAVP
Description: (§1) Activity against all zinc-dependent HDACs 1 to 11 was assessed by using an acetylated AMC-labeled peptide substrate. The substrate RHKK(Ac)AMC was used for HDAC1, HDAC2, HDAC3, HDAC6 and HDAC10; the substrate used for HDAC8 was RHK(Ac)K(Ac)AMC. Activity against the class IIa HDACs (HDAC4, 5, 7, 9) and HDAC11 was determined using a class IIa-specific substrate, BOC-Lys(trifluoroacetyl)-AMC (“Trifluoroacetyl Lysine”; see Lahm et al, 2007, PNAS, 104, 17335-17340). All assays were based on the AMC-labeled substrate and developer combination.
(§2) The protocol involved a two-step reaction: first, the substrate with the acetylated lysine side chain is incubated with a sample containing HDAC activity, to produce the deacetylated products, which are then digested in the second step by the addition of developer to produce the fluorescent signal proportional to the amount of deacetylated substrates.
Human HDAC11 (full length) (GenBank Accession No. NM_024827) with N-terminal His tag, MW=42.9 kDa, expressed in baculovirus expression system.
(§3) Assay Buffer: 50 mM Tris-HCl, pH8.0, 137 mM NaCl, 2.7 mM KCl, 1 mM MgC2. Before use, 1 mg/mL BSA and DMSO are added.
HDAC11: 5 ng/ul HDAC11 and 50 μMHDAC substrate are in the reaction buffer with 1% DMSO final. Incubate for 30 minutes at 30° C.
(§4) Stage 1: Deacetylation of substrate by incubation of HDAC enzymes with compounds
(§5) Stage 2: Development by addition of Developer to digest the deacetylated substrate, and generate the fluorescent colour; Detection: 360/460 Ex/Em

Human HDAC10 = target: T2, Human HDAC10 (Homo sapiens, UniProt Q969S8); assay: HDAC10 biochemical assay, AMC-labeled peptide substrate; conditions: read-out: HDAC Isoform IC50 (nM) 10
T2 construct: Human HDAC10 (a.a. 1-481); GST (N); His (C); host or cells: baculovirus expression system
T2 sequence (Q969S8 1-481): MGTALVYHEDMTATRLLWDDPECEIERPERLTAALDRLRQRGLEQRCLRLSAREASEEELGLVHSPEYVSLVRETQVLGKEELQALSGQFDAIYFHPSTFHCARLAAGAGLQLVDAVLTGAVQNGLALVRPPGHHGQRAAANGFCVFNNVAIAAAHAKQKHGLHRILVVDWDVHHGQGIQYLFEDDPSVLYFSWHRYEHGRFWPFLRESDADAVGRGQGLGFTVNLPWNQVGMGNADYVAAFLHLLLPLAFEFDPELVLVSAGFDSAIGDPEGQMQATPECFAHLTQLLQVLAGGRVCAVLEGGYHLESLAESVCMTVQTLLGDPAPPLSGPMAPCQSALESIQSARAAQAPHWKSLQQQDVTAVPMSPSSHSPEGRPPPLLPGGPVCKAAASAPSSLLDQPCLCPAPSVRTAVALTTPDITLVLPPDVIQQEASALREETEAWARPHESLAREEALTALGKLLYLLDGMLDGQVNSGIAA
Description: as §1, §2
Human HDAC10 (a.a. 1-481), GenBank Accession No. NM_032019 with N-terminal GST tag and C-terminal His tag, MW=78 kDa, expressed in baculovirus expression system.
as §3
HDAC10: 12 ng/ul HDAC10 and 50 μM HDAC substrate are in the reaction buffer with 1% DMSO final. Incubate for 2 hours at 30° C.
as §4, §5

SMILES | EC50 [1] [µM] | IC50 (Human HDAC11) [nM] | IC50 (Human HDAC10) [nM]
NC(=O)c1ccc(N(Cc2ccc(-c3noc(C(F)(F)F)n3)s2)c2cnccn2)nn1 [Example DQ, 6-[(Pyrazin-2-yl)({5-[5-(trifluoromethyl)-1,2,4-oxadiazol-3-yl]thiophen-2-yl}methyl)amino]pyridazine-3-carboxamide] | ≤ 1 | > 10000 | > 10000
N#Cc1cnnc(N(Cc2ccc(-c3noc(C(F)(F)F)n3)s2)c2cnccn2)c1 [Example EE, 6-[(Pyrazin-2-yl)({5-[5-(trifluoromethyl)-1,2,4-oxadiazol-3-yl]thiophen-2-yl}methyl)amino]pyridazine-4-carbonitrile] | ≤ 1 | > 10000 | > 10000
O=C(c1cnnc(N(Cc2ccc(-c3noc(C(F)(F)F)n3)s2)c2cnccn2)c1)N1CCCC1 [Example EA, N-(Pyrazin-2-yl)-5-(pyrrolidine-1-carbonyl)-N-({5-[5-(trifluoromethyl)-1,2,4-oxadiazol-3-yl]thiophen-2-yl}methyl)pyridazin-3-amine] | ≤ 1 | > 10000 | > 10000
COC1(C(F)(F)F)CN(C(=O)c2cnnc(N(Cc3ccc(-c4noc(C(F)(F)F)n4)s3)c3cnccn3)c2)C1 [Example GL, 5-[3-Methoxy-3-(trifluoromethyl)azetidine-1-carbonyl]-N-(pyrazin-2-yl)-N-({5-[5-(trifluoromethyl)-1,2,4-oxadiazol-3-yl]thiophen-2-yl}methyl)pyridazin-3-amine] | ≤ 1 | > 10000 | > 10000
FC(F)(F)c1cnnc(N(Cc2ccc(-c3noc(C(F)(F)F)n3)s2)c2cc(C(F)(F)F)cnn2)c1 [Example EU, 5-(Trifluoromethyl)-N-({5-[5-(trifluoromethyl)-1,2,4-oxadiazol-3-yl]thiophen-2-yl}methyl)-N-[5-(trifluoromethyl)pyridazin-3-yl]pyridazin-3-amine] | ≤ 1 |  | 
O=C(c1cnnc(N(Cc2ccc(-c3noc(C(F)(F)F)n3)s2)c2cnccn2)c1)N1CC(F)(F)C1 [Example FT, 5-(3,3-Difluoroazetidine-1-carbonyl)-N-(pyrazin-2-yl)-N-({5-[5-(trifluoromethyl)-1,2,4-oxadiazol-3-yl]thiophen-2-yl}methyl)pyridazin-3-amine] |  | > 10000 | > 10000
COc1nccnc1N(Cc1ccc(-c2noc(C(F)(F)F)n2)s1)c1cnccn1 [Example BF, 3-Methoxy-N-(pyrazin-2-yl)-N-({5-[5-(trifluoromethyl)-1,2,4-oxadiazol-3-yl]thiophen-2-yl}methyl)pyrazin-2-amine] |  | > 10000 | > 10000

Second part, the molecule after the results:

EC50 [1] [µM] | IC50 (Human HDAC11) [nM] | IC50 (Human HDAC10) [nM] | SMILES
≥ 10 |  |  | FC(F)(F)c1cnnc(N(Cc2ccc(-c3noc(C(F)(F)F)n3)s2)c2cccnn2)c1 [Example ER, N-(Pyridazin-3-yl)-5-(trifluoromethyl)-N-({5-[5-(trifluoromethyl)-1,2,4-oxadiazol-3-yl]thiophen-2-yl}methyl)pyridazin-3-amine]
≥ 10 | > 10000 | > 10000 | O=C(O)c1cnnc(N(Cc2ccc(-c3noc(C(F)(F)F)n3)s2)c2cc(C(F)(F)F)cnn2)c1 [Example ES, 6-[({5-[5-(Trifluoromethyl)-1,2,4-oxadiazol-3-yl]thiophen-2-yl}methyl)[5-(trifluoromethyl)pyridazin-3-yl]amino]pyridazine-4-carboxylicacid]
≤ 1 |  |  | COc1cncc(N(Cc2ccc(-c3noc(C(F)(F)F)n3)s2)c2cc(C(F)(F)F)cnn2)n1 [Example EN, N-(6-Methoxypyrazin-2-yl)-5-(trifluoromethyl)-N-({5-[5-(trifluoromethyl)-1,2,4-oxadiazol-3-yl]thiophen-2-yl}methyl)pyridazin-3-amine]
 | > 10000 | > 10000 | OC1(c2cnnc(N(Cc3ccc(-c4noc(C(F)(F)F)n4)s3)c3cnccn3)c2)COC1 [Example GW, 3-{6-[(Pyrazin-2-yl)({5-[5-(trifluoromethyl)-1,2,4-oxadiazol-3-yl]thiophen-2-yl}methyl)amino]pyridazin-4-yl}oxetan-3-ol]
 | > 10000 | > 10000 | FC(F)(F)c1cncc(N(Cc2ccc(-c3noc(C(F)(F)F)n3)s2)c2cnccn2)n1 [Example BR, N-(Pyrazin-2-yl)-6-(trifluoromethyl)-N-({5-[5-(trifluoromethyl)-1,2,4-oxadiazol-3-yl]thiophen-2-yl}methyl)pyrazin-2-amine]
 | > 10000 | > 10000 | COc1cncc(N(Cc2ccc(-c3noc(C(F)(F)F)n3)s2)c2cnccn2)n1 [Example BQ, 6-Methoxy-N-(pyrazin-2-yl)-N-({5-[5-(trifluoromethyl)-1,2,4-oxadiazol-3-yl]thiophen-2-yl}methyl)pyrazin-2-amine]
 | > 10000 | > 10000 | CC(C)OC1CN(C(=O)c2cnnc(N(Cc3ccc(-c4noc(C(F)(F)F)n4)s3)c3cnccn3)c2)C1 [Example GC, 5-[3-(Propan-2-yloxy)azetidine-1-carbonyl]-N-(pyrazin-2-yl)-N-({5-[5-(trifluoromethyl)-1,2,4-oxadiazol-3-yl]thiophen-2-yl}methyl)pyridazin-3-amine]

Reference: patent US20210038607A1, “OXADIAZOLYLTHIOPHENE DERIVATIVES USEFUL AS HISTONE DEACETYLASE INHIBITORS” (Karus Therapeutics Limited, priority 2018, published 2021)
